Measurements: patent US5288851A, “Renin inhibitors, processes for preparing them, methods for using them, and compositions containing them” (Warner-Lambert Company, priority 1992, dated 1994)

Target: T1, renin (Homo sapiens, UniProt P00797)
T1 sequence (P00797 67-406): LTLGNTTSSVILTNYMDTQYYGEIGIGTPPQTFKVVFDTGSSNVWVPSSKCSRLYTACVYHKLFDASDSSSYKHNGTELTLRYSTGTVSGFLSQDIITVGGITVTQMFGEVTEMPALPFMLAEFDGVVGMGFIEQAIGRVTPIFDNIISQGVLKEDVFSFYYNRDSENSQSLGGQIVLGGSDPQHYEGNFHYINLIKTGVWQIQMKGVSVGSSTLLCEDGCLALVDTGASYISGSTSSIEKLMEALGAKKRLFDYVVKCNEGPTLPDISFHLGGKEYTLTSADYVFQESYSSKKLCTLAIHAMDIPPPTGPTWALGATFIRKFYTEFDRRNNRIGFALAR
Assay: in vitro renin inhibitory activity, radioimmunoassay for angiotensin I
Assay type: biochemical
Conditions: renin incubated two hours at 37° with substrate angiotensinogen; angiotensin I by radioimmunoassay; molar concentration causing 50% inhibition
Description: The effectiveness of the aforementioned compounds is determined by a test for in vitro renin inhibitory activity. This activity is determined by a standard radioimmunoassay for angiotensin I. In this assay the enzyme, renin, incubated for two hours at 37° in the presence of a substrate, angiotensinogen, generates the product, angiotensin I. Test compounds are added to the incubation mixture. Relative activity is reported as the IC50, which is the molar concentration of test compound causing a 50% inhibition of the renin activity.

Row | Molecule | IC50 [nM]
1 | CCC(C)CNC(=O)CC(O)C(CC(C)C)NC(=O)C(Cc1cnc[nH]1)NC(=O)C(Cc1ccccc1)NS(=O)(=O)N(C)C (stereo not drawn) [Me2 NSO2 PHEHISSTANHCH2 CH(CH3)CH2 CH3, Me2 NSO2 --PHE--HIS--STA--NHCH2 CH(CH3)CH2 CH3] | 41
2 | CCC(C)CNC(=O)CC(O)C(CC(C)C)NC(=O)C(Cc1cnc[nH]1)NC(=O)C(Cc1ccc(OC)cc1)NS(=O)(=O)N(C)C (stereo not drawn) [Me2 NSO2 TYR(OMe)HISSTANHCH2 CH(CH3)CH2 CH3] | ~3000
3 | Me2 NSO2 --PHE--PGY--STA--NHCH2 CH(CH3)CH2 CH3 [Me2 NSO2 PHEPGYSTANHCH2 CH(CH3)CH2 CH3] | 34
4 | MeNSO2 PHEPGYCYSTANHCH2 CH(CH3)CH2 CH3 | 1.1

Further molecules by falling IC50, results first:

Row | IC50 [nM] | Molecule
5 | 7 | C=CC[C@H](NC(=O)[C@H](Cc1ccccc1)NS(=O)(=O)N(C)C)C(=O)N[C@@H](CC(C)C)[C@@H](O)CC(=O)NCC(C)CC (stereo partly drawn) [MeNSO2 PHEALGSTANHCH2 CH(CH3)CH2 CH3, Me2 NSO2 --PHE--ALG--STA--NHCH2 CH(CH3)CH2 CH3]
6 | 1.5 | MeNSO2 PHEALGCYSTANHCH2 CH(CH3)CH2 CH3
